As a reminder, the IC50 is the concentration that gives 50% inhibition. A low value points to higher potency. The DC50 is the midpoint of the concentration-degradation curve. One may read the Dmax as the greatest extent of degradation seen.

These results are taken from patent publication US20250084056A1, “SUBSTITUTED OXOISOINDOLINYL PIPERIDINE-2,6-DIONE COMPOUNDS” (BRISTOL-MYERS SQUIBB COMPANY, priority 2023, published 2025).

Structures are written as SMILES.

What all share (format): cell-based
In one test the test system is Phospho-Rb (Ser807/811). Nature of the test: Phospho-Retinoblastoma (pRB) Cellular Assay. The following applies: Homo sapiens, OVCAR-3, NIH OVCAR3 cells, 24 hours; for IC50: concentration giving 50% response; for Emax: maximum response, reference compound at 10 μM = 100%, read-out: pRB Ymax. The procedure, abridged:
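Phospho-Rb (Ser807/811) kit read-out on EnVision after lysis (≥4 h, room temperature, dark) of OVCAR3 cells exposed to compound dilutions for 24 h. IC50 and maximum response Ymax are relative to a 10 μM reference compound defining 100%.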

Another test deals with Cyclin E1 (Homo sapiens, UniProt P24864+Q96SW2). The test can be described thus: Cyclin E1 Cellular Degradation Assay (MSD). On the set-up: endogenous in cells; host or cells: OVCAR3. The conditions noted are these: for DC50 / Dmax: Cyclin E1 cellular degradation; for Dmax: maximum degradation; for Ratio of GSPT1 DC50/Cyclin E1 DC50: selectivity for degradation of Cyclin E1 over GSPT1. A digest of the protocol: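 Cyclin E1 remaining after 24 h compound exposure of OVCAR3 cells was quantified in lysates by electrochemiluminescent MSD sandwich assay. DC50 (50% response concentration) and Dmax (maximum response) were calculated, with 110% response set by a reference compound at […].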

In another test the target is GSPT1 (Homo sapiens, UniProt P15170+Q96SW2). Nature of the test: GSPT1 Cellular Degradation Assay (DF15-GSPT1-ePL). The following applies: DF15-GSPT1-ePL cells, 20 hours. On the set-up: expressed in transfected cells. The procedure, abridged:
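DC50 and Dmax were derived from chemiluminescence, with 75% response set by the reference compound at […]. Readout was ePL enzyme-fragment complementation in a DF15 line expressing chimeric GSPT1. Cells were exposed to compound for 20 h at 37 °C in RPMI 1640 with 10% FBS, cooled 30 min, then lysed with substrate for 60 min.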

Chain of Cyclin E1 (P24864 whole entry): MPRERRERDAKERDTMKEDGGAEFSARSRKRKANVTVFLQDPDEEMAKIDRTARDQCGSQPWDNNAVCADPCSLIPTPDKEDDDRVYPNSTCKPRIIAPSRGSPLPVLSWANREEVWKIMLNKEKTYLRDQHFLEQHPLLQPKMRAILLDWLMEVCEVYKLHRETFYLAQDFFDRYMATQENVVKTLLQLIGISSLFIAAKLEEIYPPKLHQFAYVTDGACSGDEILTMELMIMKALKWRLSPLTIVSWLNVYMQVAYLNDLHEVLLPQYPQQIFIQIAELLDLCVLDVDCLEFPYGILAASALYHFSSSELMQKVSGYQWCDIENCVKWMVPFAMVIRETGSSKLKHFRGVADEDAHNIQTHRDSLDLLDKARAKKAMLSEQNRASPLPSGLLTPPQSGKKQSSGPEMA
Chain of Cyclin E1 (Q96SW2 whole entry): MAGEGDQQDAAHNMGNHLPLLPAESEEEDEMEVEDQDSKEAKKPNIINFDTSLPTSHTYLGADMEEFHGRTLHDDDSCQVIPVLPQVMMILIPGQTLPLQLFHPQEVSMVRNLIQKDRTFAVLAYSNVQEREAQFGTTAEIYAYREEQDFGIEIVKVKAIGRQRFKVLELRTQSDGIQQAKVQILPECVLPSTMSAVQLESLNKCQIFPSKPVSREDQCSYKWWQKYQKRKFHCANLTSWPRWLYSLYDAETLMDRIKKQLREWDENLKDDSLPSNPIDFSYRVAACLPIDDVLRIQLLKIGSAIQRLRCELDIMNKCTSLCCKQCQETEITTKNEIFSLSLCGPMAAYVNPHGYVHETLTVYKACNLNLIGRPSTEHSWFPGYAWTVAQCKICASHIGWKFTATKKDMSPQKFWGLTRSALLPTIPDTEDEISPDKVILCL
Chain of Cyclin E1 (Q16531 whole entry partner): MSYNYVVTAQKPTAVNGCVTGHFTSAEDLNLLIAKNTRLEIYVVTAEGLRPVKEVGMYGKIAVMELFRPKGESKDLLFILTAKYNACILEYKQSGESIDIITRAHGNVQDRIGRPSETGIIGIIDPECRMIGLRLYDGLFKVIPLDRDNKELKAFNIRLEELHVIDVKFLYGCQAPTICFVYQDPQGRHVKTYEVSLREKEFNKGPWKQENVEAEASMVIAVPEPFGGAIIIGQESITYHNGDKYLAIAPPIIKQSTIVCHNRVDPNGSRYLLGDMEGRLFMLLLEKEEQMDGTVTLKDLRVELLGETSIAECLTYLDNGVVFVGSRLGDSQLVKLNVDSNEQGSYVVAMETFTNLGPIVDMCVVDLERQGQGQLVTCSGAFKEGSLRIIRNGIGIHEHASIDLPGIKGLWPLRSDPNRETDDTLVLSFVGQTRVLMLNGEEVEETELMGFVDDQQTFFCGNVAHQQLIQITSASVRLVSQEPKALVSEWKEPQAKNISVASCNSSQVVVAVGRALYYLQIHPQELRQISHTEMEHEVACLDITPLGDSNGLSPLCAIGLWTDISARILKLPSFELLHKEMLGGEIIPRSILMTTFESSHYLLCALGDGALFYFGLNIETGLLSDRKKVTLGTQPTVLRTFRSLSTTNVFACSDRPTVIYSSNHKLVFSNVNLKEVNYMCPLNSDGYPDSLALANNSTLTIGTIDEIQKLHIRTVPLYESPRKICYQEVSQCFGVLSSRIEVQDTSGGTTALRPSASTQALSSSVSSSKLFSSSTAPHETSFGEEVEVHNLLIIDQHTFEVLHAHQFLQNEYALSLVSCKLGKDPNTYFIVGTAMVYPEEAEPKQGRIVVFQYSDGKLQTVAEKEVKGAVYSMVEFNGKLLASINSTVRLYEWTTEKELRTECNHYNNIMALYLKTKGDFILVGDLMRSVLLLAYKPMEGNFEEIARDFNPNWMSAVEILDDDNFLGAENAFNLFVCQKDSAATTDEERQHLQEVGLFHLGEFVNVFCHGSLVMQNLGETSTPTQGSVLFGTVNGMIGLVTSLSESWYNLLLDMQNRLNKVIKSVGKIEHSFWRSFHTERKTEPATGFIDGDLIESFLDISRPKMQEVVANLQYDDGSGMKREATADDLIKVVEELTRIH
Chain of GSPT1 (P15170 whole entry, the tested form may be a part): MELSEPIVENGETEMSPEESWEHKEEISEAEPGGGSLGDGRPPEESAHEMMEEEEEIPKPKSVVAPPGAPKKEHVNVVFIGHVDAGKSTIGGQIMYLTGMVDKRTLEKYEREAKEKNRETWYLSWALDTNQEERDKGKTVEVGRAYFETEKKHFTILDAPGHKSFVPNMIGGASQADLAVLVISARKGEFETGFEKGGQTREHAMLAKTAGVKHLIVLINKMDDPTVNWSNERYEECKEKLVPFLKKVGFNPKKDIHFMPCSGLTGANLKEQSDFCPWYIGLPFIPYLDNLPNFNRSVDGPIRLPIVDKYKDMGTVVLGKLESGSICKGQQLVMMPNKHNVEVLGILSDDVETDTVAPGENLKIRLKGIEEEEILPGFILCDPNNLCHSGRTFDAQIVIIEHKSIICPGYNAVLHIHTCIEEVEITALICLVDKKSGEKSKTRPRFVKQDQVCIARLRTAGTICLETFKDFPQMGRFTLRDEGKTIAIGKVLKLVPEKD
Chain of GSPT1 (Q96SW2 whole entry, the tested form may be a part): as the sequence (Q96SW2 whole entry) above
Chain of GSPT1 (Q16531 whole entry partner, the tested form may be a part): as the sequence (Q16531 whole entry partner) above

With `NC(=O)COc1c(COC(=O)Nc2ccc(Oc3ccc(F)c(F)c3)cc2)ccc2c1C(=O)N(C1CCC(=O)NC1=O)C2` (centres unmarked) [Example 176, [4-(carbamoylmethoxy)-2-(2,6-dioxopiperidin-3-yl)-3-oxo-2,3-dihydro-1H-isoindol-5-yl]methyl N-[4-(3,4-difluorophenoxy)phenyl]carbamate], in the test with Phospho-Rb (Ser807/811), the IC50 turned out to be 44 nM and the Emax was 112%. In addition, at Cyclin E1, half-maximal degradation (DC50) was put at 179 nM, the Dmax amounted to 101% and the “Ratio of GSPT1 DC50/Cyclin E1 DC50” value is on record as greater than 78. At GSPT1, the DC50 was greater than 14 µM and the Dmax came to 20%.

As to `CCN(C)C(=O)COc1c(COC(=O)Nc2ccc(Oc3ccc(F)c(F)c3)cc2)ccc2c1C(=O)N(C1CCC(=O)NC1=O)C2` (centres unmarked) [Example 177, [2-(2,6-dioxopiperidin-3-yl)-4-{[ethyl(methyl)carbamoyl]methoxy}-3-oxo-2,3-dihydro-1H-isoindol-5-yl]methyl N-[4-(3,4-difluorophenoxy)phenyl]carbamate], in the test with Phospho-Rb (Ser807/811), the IC50 was determined as 161 nM and the Emax was found to be 126%. Further, on Cyclin E1, half-maximal degradation (DC50) was put at 299 nM, the Dmax is 108% and the “Ratio of GSPT1 DC50/Cyclin E1 DC50” value is reported as greater than 47. Moreover, on GSPT1, the DC50 was greater than 14 µM and the Dmax was 0%.

In the case of `O=C1CCC(N2Cc3ccc(COC(=O)Nc4ccc(Oc5ccc(F)c(F)c5)cc4)c(OCC(=O)N4CCOCC4)c3C2=O)C(=O)N1` (centres unmarked) [Example 178, [2-(2,6-dioxopiperidin-3-yl)-4-[2-(morpholin-4-yl)-2-oxoethoxy]-3-oxo-2,3-dihydro-1H-isoindol-5-yl]methyl N-[4-(3,4-difluorophenoxy)phenyl]carbamate], in the test with Phospho-Rb (Ser807/811), the IC50 was found to be 131 nM and the Emax worked out at 126%. On Cyclin E1, the DC50 was 110 nM, the Dmax was 105% and the “Ratio of GSPT1 DC50/Cyclin E1 DC50” value is greater than 127. For the same molecule, on GSPT1, the DC50 is greater than 14 µM and the Dmax turned out to be 16%.

With `CC(=O)N1CCC(Oc2c(COC(=O)Nc3ccc(Oc4ccc(F)c(F)c4)cc3)ccc3c2C(=O)N(C2CCC(=O)NC2=O)C3)CC1` (centres unmarked) [Example 179, {4-[(1-acetylpiperidin-4-yl)oxy]-2-(2,6-dioxopiperidin-3-yl)-3-oxo-2,3-dihydro-1H-isoindol-5-yl}methyl N-[4-(3,4-difluorophenoxy)phenyl]carbamate], in the test with Phospho-Rb (Ser807/811), the IC50 came out at 42 nM and the Emax was found to be 140%. Besides, at Cyclin E1, the DC50 was 224 nM, the Dmax is 104% and the “Ratio of GSPT1 DC50/Cyclin E1 DC50” value is given as greater than 62. Also, at GSPT1, the DC50 was greater than 14 µM and the Dmax was 10%.

With `[2H]C1([2H])C(=O)NC(=O)[C@@]([2H])(N2Cc3ccc(COC(=O)Nc4ccc(Oc5ccc(F)c(F)c5)cc4)c(OC)c3C2=O)C1([2H])[2H]` [Example 180, {2-[(3S)-2,6-dioxo(3,4,4,5,5-^2H5s)piperidin-3-yl]-4-methoxy-3-oxo-2,3-dihydro-1H-isoindol-5-yl}methyl N-[4-(3,4-difluorophenoxy)phenyl]carbamate], in the test with Phospho-Rb (Ser807/811), the IC50 worked out at 54 nM and the Emax was 108%. Further, at Cyclin E1, half-maximal degradation (DC50) was put at 60 nM, the Dmax came to 111% and the “Ratio of GSPT1 DC50/Cyclin E1 DC50” value is greater than 233. Also, on GSPT1, the DC50 is greater than 14 µM and the Dmax came to 48%.
